US6146616A, “Antioxidant and/or antielastase composition based on lupine oil” (priority 1997, dated 2000)

Key:
plasmid DNA (pBS) = assay: 3-D test: protection of adsorbed plasmid DNA against singlet oxygen generated by illuminated methylene blue; format: biochemical; settings: for % Specific inhibition: methylene blue + light; for % Aspecific inhibition: on predamaged plasmid pBS^UV, absence of ROS
Text: The test used is a biological system of detecting damage (3-D test) on DNA captured on a microplate (Analytical Biochemistry, 1995, 232, 37-42). The damage is recognized by the repair enzymes and repaired by purified cellular extracts. The repair of the lesions involves a phase for excision and then resynthesis of the damaged and excised DNA fragment. During the reparative synthesis stage, one or more modified nucleotides (digoxigenylated dUTP or DIG-11-dUTP) are incorporated into the DNA. These nucleotides are then recognized by anti-DIG antibodies coupled to alkaline phosphatase. An alkaline phosphatase substrate (Lumi-Phos 530) is then added and the luminescent signal emitted is measured by a luminometer (Lumax 2, marketed by the company S.F.R.I.). The intensity of the signal obtained depends on the different parameters (extracts, salt concentration, quantity of DNA, reaction time and the like) including that relating to the number of lesions repaired, and therefore of lesions present on the DNA. A dose-response relationship is observed within the limit of 1 to 15 lesions per 6 kilobases for most of the lesions.
This system is capable of repairing any type of lesion since all the enzymes for repairing DNA lesions are present and active in the extracts. The oxidative damage is therefore recognized in this system.
The damage is caused by reactive oxygen species (ROS) by means of a system which induces the formation of lesions on the DNA adsorbed in a well, leading to the reading of a reparative synthesis signal. In the presence of a compound or of a mixture of compounds which make it possible to protect DNA as a result, for example, of antioxidant or anti-free radical properties, a decrease or even an elimination of the repair signal, a reflection of the quantity of lesions, is observed.
ROS ^1 O2, a powerful electrophile which has a very short life, is generated by illumination of methylene blue. It therefore reacts very rapidly with the bases in the DNA and produces various types of damage such as modification of bases or loss of bases, which are very genotoxic.
Ultrapurified plasmid DNA (pBS) (predominantly supercoiled form) is placed in contact with the wells sensitized by poly-lysine for 30 minutes at 30° C., with gentle shaking, at a concentration of 1 μg/ml in a volume of 50 μl. Under these conditions, the adsorption of the DNA is quantitative (about 40 ng per well).
A positive control for repair, consisting of a plasmid predamaged by UV-C (called pBS^UV), is added.
After incubation, the wells are washed twice with a solution of PBS supplemented with 0.1% Tween 20.
A stock solution of methylene blue at 10 μg/ml is diluted to a concentration of 4 ng/ml in ultrapure water (MilliQ quality from Millipore).
This solution is mixed in an equal volume with various dilutions of the samples, and 50 μl of the mixture (at 2 ng/ml of methylene blue) are added to the wells containing the adsorbed plasmid DNA. The wells are placed on ice and illuminated for 20 minutes with 2 lamps of 100 W, 30 cm apart.
The four samples were tested at 3 dilutions.
The dilutions were made 2X, in propylene glycol, in order to obtain the desired dilutions after addition of a volume of methylene blue solution of 4 ng/ml.
In order to check that the decrease in the repair signal is not aspecific, the same dilutions (IX) are incubated under the same conditions on pBS^UV. […] An inhibition of the control repair signal for pBS^UV can, for example, be explained by a direct interaction of the sample with the DNA which blocks access of the lesions to the repair enzymes.
These different dilutions were incubated on the nondamaged DNA (pBS) and illuminated in the absence of methylene blue. This test makes it possible to check that the product tested is not genotoxic.
They are expressed as the percentage residual repair inhibition. The 0% value corresponds to the repair signal under the condition of methylene blue treatment alone. […]

pancreatic elastase = target: T1, pancreatic elastase (Sus scrofa, UniProt P00772); assay: Antielastase activity in sections of human skin explant (intact elastic fibers, image analysis); format: biochemical; settings: for % Inhibition of the elastase activity: elastase 5 IU/ml, 3 hours, 37° C.; for Inhibition (of elastase, graded 0 to +++): Table 8
T1 construct: purchased Sigma E0258
T1 sequence (P00772 27-266): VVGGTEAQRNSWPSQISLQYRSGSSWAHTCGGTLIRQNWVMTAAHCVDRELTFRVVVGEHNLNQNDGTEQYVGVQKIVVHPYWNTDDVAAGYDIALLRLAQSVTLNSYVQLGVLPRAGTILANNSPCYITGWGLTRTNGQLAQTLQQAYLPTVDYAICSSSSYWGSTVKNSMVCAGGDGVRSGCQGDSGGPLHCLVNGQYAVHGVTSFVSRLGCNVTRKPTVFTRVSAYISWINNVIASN
Text: The study of the antielastase activity represents a good indication of skin aging since it is now well known that the degradation of the elastic fibers present in the dermis involves endogenous elastases. The test used makes it possible to study the antielastase activity in vitro in sections of human skin explant. An application of purified elastase on a limited portion of the section is accompanied by degradation of the endogenous elastic fibers. The elastic fibers are stained with (+)-catechin. The percentage of intact elastic fibers per optical field is evaluated by image analysis. A product having antielastase activity makes it possible to preserve the integrity of the elastic fibers in the presence of purified elastase.
A pancreatic elastase (type IV, reference E0258, Sigma) is used. The medium for incubation of the human skin sections ("vehicle") is 0.1 M Herpes buffer, adjusted to pH 7.5 with sodium hydroxide containing 0.1 M sodium chloride.
The skin sections are produced from surgical waste collected after abdominal plastic surgery. The donor was a person. Explants of 1 cm in diameter are produced and they are deposited on a cork support and they are frozen at -80° C. Transverse sections 6 µm thick are produced with a cryomicrotome. The sections are fixed on glass slides and maintained hydrated with the vehicle during the test.
The test products are tested at 0.5; 1 and 5% (v/v) in the vehicle.
The elastatinal is tested at 0.01 and 0.1% (w/v) in the vehicle.
The mercuric chloride is tested at 0.025 and 0.125% (w/v) in the vehicle.
The dilutions of the test products and of the reference products are deposited on the skin sections in an amount of 100 μl per section (0.32 cm^2 in surface area), and preincubated for ten minutes at 37° C. Filter paper strips (0.16 cm^2 in surface area) impregnated with the vehicle alone (control vehicle) or containing pancreatic elastase at 5 international units (IU)/ml (control enzyme) are deposited on the sections. The slides are placed in a humid chamber at 37° C. for three hours.
After incubation, the sections are rinsed with the incubation medium and stained with (+)-catechin. The activity of the enzyme in the absence and in the presence of the test products or of the reference products is evaluated by image analysis: the image of the stained sections is digitized on a video screen; a software for image analysis makes it possible to measure the amounts of gray in the binary images; the surface area occupied by the intact elastic fibers is measured. The results are expressed as percentage of intact elastic fibers per optical field.
The percentage inhibition of the elastase activity of the test products and of the reference products is calculated with the aid of the following formula: [formula]
The antielastase activity is determined under the conditions indicated in IV above.

[1] = tested on: human epidermal keratinocytes; assay: Anti-free radical activity: hydroperoxides by fluorometry in UVA-irradiated keratinocytes; format: cell-based; settings: Keratinocyte, light or radiation study, 1.5 h, 0.1% (w/v), UVA 90 minutes (10 J/cm^2), read-out: % protection
Text: The cells are human epidermal keratinocytes. […] The cells are used at the sixth passage, they are inoculated at 1×10^5 cells per well into 6-well culture plates. They are used at confluence.
It is quantified by a fluorometric method which detects the quantity of hydroperoxides which are metabolites of free radicals. An appropriate probe which converts to a fluorescent derivative in their presence is used, according to the method described by Keston A. S. and Brandt R. (The fluorometric analysis of ultramicro quantities of hydrogen peroxide, Anal. Biochem. 11, 1965, 1-5).
The free radicals are generated at the cell culture level by irradiation with ultraviolet A rays. […]
After irradiation, the keratinocytes are lyzed by the action of ultrasound. The cellular lysates are transferred into 96-well plates and analyzed by fluorimetry with the aid of a plate analyzer (excitation: 355 nm, emission: 460 nm).
The results are expressed in fluorescence unit/culture well.
The percentage protection of the test products or of the reference products R1 and R2 was calculated with the aid of the following formula: [formula]
By convention, when the values measured in the presence of the test products or in the presence of the reference products were less than those of the "non-irradiated control", the percentage protection was expressed as 100%.

Structure (SMILES) | % Specific inhibition (plasmid DNA (pBS); 0.01%) [%] | % Aspecific inhibition (plasmid DNA (pBS); 0.01%) [%] | protective properties on DNA towards singlet oxygen (in words) (plasmid DNA (pBS); 0.01 to 1%) | % Specific inhibition (plasmid DNA (pBS); 0.1%) [%] | % Aspecific inhibition (plasmid DNA (pBS); 0.1%) | % Specific inhibition (plasmid DNA (pBS); 1%) [%] | % Aspecific inhibition (plasmid DNA (pBS); 1%) [%] | other results
CC1=C(/C=C/C(C)=C/C=C/C(C)=C/C=C/C=C(C)/C=C/C=C(C)/C=C/C2=C(C)CCCC2(C)C)C(C)(C)CCC1 [Control, β-carotene] | 45 | 0 | does not exhibit a dose-effect | 53 | +2% | 45 | 0 | aspecific effect / aspecificity (in words) (plasmid DNA (pBS); 0.01 to 1%): does not show, on the other hand, aspecificity
CC(C)C[C@H](NC(=O)N[C@H](C(=O)N[C@@H](CCC(N)=O)C(=O)N[C@@H](C)C=O)[C@@H]1CCNC(=N)N1)C(=O)O [Elastatinal, elastatinal] |  |  |  |  |  |  |  | % Inhibition of the elastase activity (pancreatic elastase; 0.01% (w/v)): 71.5%; % Inhibition of the elastase activity (pancreatic elastase; 0.01% (w/v), listed as elastatinal): 71%; % Inhibition of the elastase activity (pancreatic elastase; 0.1% (w/v)): 59.9%; % Inhibition of the elastase activity (pancreatic elastase; 0.1% (w/v), listed as elastatinal): 60%; Inhibition (of elastase, graded 0 to +++) (pancreatic elastase; 0.1% (w/v)): strongly inhibits
[Cl][Hg][Cl] [Mercuric chloride, mercuric chloride] |  |  |  |  |  |  |  | % Inhibition of the elastase activity (pancreatic elastase; 0.025% (w/v)): 18.4%; % Inhibition of the elastase activity (pancreatic elastase; 0.025% (w/v), listed as mercuric chloride): 18%; % Inhibition of the elastase activity (pancreatic elastase; 0.125% (w/v)): 39.3%; % Inhibition of the elastase activity (pancreatic elastase; 0.125% (w/v), listed as mercuric chloride): 39%; Inhibition (of elastase, graded 0 to +++) (pancreatic elastase; 0.125% (w/v)): strongly inhibits
CC(O)CO (centres unmarked) [Propylene glycol, propylene glycol] | 0 | 2 | only very weak protective properties | 6 | 6% | 13 | 7 | 
CC(=O)Oc1c(C)c(C)c2c(c1C)CCC(C)(CCCC(C)CCCC(C)CCCC(C)C)O2 (centres unmarked) [Vitamin E acetate, vitamin E acetate] |  |  |  |  |  |  |  | inhibition at 0.1 % [1]: 65%
